pIC50: −log10 of the molar value. Counter-ions that a name gives are not always drawn.
Experiments:
Human PKMYT1 = molecular target: T1, Human PKMYT1 (Homo sapiens, UniProt Q99640); assay: PKMYT1 biochemical ADP-Glo enzymatic assay; details: ADP-Glo
T1 construct: Human PKMYT1 75-362 was cloned as a TEV cleavable 6xHis fusion; 6xHis (TEV cleavable) (cleaved yes); made in house; host or cells: bacterial cells
T1 sequence (Q99640 75-362): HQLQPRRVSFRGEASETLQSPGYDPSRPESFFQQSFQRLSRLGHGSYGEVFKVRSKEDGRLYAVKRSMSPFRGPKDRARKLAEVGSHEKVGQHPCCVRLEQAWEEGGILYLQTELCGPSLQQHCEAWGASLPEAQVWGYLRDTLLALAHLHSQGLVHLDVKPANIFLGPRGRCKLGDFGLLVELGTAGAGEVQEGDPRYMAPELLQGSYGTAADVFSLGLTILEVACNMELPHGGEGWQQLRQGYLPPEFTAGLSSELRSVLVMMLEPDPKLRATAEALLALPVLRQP
Outline: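 Compounds were titrated over 10 points (3-fold steps), then 15 nM purified PKMYT1 kinase domain (aa 75-362) and 500 µM ATP were added in pH 7.5 HEPES buffer. After 60 min at 26 °C, remaining ATP was depleted and ADP converted to luminescence for IC50 fitting.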

WEE1 = molecular target: T2, WEE1 (Homo sapiens, UniProt P30291); assay: Selectivity versus WEE1 assay (ADP-Glo enzymatic assay); format: biochemical; details: for pIC50: ADP-Glo; for PKMYT1 vs. WEE1 selectivity: fold difference in selectivity for PKMYT1 over WEE1
T2 construct: purchased Thermo Fisher PR7373A
T2 sequence (P30291 whole entry): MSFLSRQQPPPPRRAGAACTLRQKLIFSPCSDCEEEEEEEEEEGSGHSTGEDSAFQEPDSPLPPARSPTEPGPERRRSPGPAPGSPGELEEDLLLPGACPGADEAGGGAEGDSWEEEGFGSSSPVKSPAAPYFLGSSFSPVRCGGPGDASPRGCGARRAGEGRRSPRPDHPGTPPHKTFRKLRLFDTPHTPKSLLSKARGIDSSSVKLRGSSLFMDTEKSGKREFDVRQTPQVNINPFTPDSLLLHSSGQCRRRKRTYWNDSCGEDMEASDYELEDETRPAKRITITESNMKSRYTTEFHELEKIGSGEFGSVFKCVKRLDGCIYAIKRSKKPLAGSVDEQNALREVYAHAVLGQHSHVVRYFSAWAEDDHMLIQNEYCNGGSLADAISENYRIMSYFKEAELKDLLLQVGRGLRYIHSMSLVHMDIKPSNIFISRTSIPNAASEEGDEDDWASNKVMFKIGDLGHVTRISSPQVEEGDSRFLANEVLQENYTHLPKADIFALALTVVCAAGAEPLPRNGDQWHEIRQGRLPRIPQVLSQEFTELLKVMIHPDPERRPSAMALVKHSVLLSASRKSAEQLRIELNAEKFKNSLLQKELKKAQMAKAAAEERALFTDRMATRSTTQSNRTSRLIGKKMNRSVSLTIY
Experimental: Selectivity versus WEE1 assay: Selectivity was established using the same format as outlined for PKMYT1. After dosing of compounds via the Echo acoustic dispenser—as described above—WEE1 (Thermo Fisher PR7373A) was added to each well at a final concentration of 15 nM in a buffer of 50 mM HEPES (pH 7.5), 10 mM MgCl2, 1 mM EGTA, 0.01% Brij-35, 1% DMSO. 30 µM ATP was added to start the reaction with the final assay volume being 4 μl. The plate was then incubated for 60 minutes at 26° C. before the addition of 4 μl of ADP-Glo Reagent. Following a further 60 minute incubation the assay signal was developed by the addition of 8 μl ADP-Glo Detection Reagent. After 60 minutes the luminescence signal was read on a PHERAStar FS microplate reader (BMG Labtech).
Data analysis: Data was captured and analysed within the Dotmatics Studies software module where dose response curves were generated and IC50 values determined. Acceptance and verification of data followed strict in-house business rules which are summarised as follows. […] Technical and biological replicates of each compound are routinely tested and replicate IC50 values must fall within 3-fold of each other with dose response curves showing ‘goodness of fit’ r2 values >0.9. Failure to meet any of these defined criteria result in rejection of data.

[1] = 15 nM PKMYT1 kinase domain, 500 µM ATP, 60 minutes at 26° C., banded
[2] = 15 nM WEE1, 60 minutes at 26° C., banded
[3] = banded, ">N" = at least in this band but could be higher
[4] = PKMYT1 kinase domain 15 nM, banded values

SMILES | pIC50 (Human PKMYT1; [1]) | pIC50 (WEE1; [2]) | PKMYT1 vs. WEE1 selectivity (WEE1; [3]) | pIC50 (Human PKMYT1; [4]) | pIC50 (WEE1; WEE1 15 nM, banded values) | PKMYT1 vs. WEE1 selectivity (WEE1; banded)
Cc1ccc(O)c(C)c1NC(=O)c1cnc(Nc2ncc(C(F)(F)F)cn2)s1 [BAA-279, N-(3-hydroxy-2,6-dimethylphenyl)-2-((5-(trifluoromethyl)pyrimidin-2-yl)amino)thiazole-5-carboxamide] | > 7.30 | < 4.96 | Y (1000-5000 fold) | – | – | –
Cc1ccc(O)c(C)c1NC(=O)c1cnc(Nc2nncs2)s1 [BAA-028, N-(3-hydroxy-2,6-dimethyl-phenyl)-2-(1,3,4-thiadiazol-2-ylamino)thiazole-5-carboxamide] | > 7.30 | < 4.96 | X (100-<1000 fold) | – | – | –
Cc1cc(Nc2ncc(C(=O)Nc3c(C)ccc(O)c3C)s2)n(CCC(N)=O)n1 [BAA-240, 2-((1-(3-amino-3-oxopropyl)-3-methyl-1H-pyrazol-5-yl)amino)-N-(3-hydroxy-2,6-dimethylphenyl) thiazole-5-carboxamide] | 6.00 to 7.30 | < 4.96 | X (100-<1000 fold) | – | – | –
Cc1ccc(O)c(C)c1NC(=O)c1cnc(Nc2ccn(CC(=O)N3CCN(C4CCCC4)CC3)n2)s1 [BAA-186] | > 7.30 | < 4.96 | Y (1000-5000 fold) | – | – | –
Cc1cn(C)nc1Nc1nnc(C(=O)Nc2c(C)ccc(O)c2C)s1 [BAA-465, 5-((1,4-dimethyl-1H-pyrazol-3-yl)amino)-N-(3-hydroxy-2,6-dimethylphenyl)-1,3,4-thiadiazole-2-carboxamide] | – | – | – | > 7.30 | < 4.96 | Y (1000-5000 fold)
COc1ccc(CNc2ncc(C(=O)Nc3c(C)ccc(O)c3C)s2)cc1 [BAA-352, N-(3-hydroxy-2,6-dimethylphenyl)-2-((4-methoxybenzyl)amino)thiazole-5-carboxamide] | 6.00 to 7.30 | < 4.96 | X (100-<1000 fold) | – | – | –
Cc1ccc(O)c(C)c1NC(=O)c1cnc(Nc2cc(CO)n(C)n2)s1 [BAA-251, N-(3-hydroxy-2,6-dimethylphenyl)-2-((5-(hydroxymethyl)-1-methyl-1H-pyrazol-3-yl)amino)thiazole-5-carboxamide] | > 7.30 | 4.96 to 6.00 | X (100-<1000 fold) | – | – | –
Cc1ccc(O)c(C)c1NC(=O)c1cnc(Nc2cc(C)n(CCC(=O)O)n2)s1 [BAA-241, 3-(3-((5-((3-hydroxy-2,6-dimethylphenyl)carbamoyl)thiazol-2-yl)amino)-5-methyl-1H-pyrazol-1-yl)propanoic acid] | 6.00 to 7.30 | < 4.96 | X (100-<1000 fold) | – | – | –
Cc1ccc(O)c(C)c1NC(=O)c1cnc(Nc2ccn(CC(=O)N3CCNCC3)n2)s1 [BAA-222, N-(3-hydroxy-2,6-dimethylphenyl)-2-((1-(2-oxo-2-(piperazin-1-yl)ethyl)-1H-pyrazol-3-yl)amino)thiazole-5-carboxamide] | > 7.30 | < 4.96 | X (100-<1000 fold) | – | – | –
Cc1ccc(O)c(C)c1NC(=O)c1cnc(Nc2ccn(CC(=O)NCCN3CCCCC3)n2)s1 [BAA-168, N-(3-hydroxy-2,6-dimethyl-phenyl)-2-[[1-[2-oxo-2-[2-(1-piperidyl)ethylamino]ethyl]pyrazol-3-yl]amino]thiazole-5-carboxamide (hydrochloride)] | 6.00 to 7.30 | < 4.96 | W (10-<100 fold) | – | – | –
Cn1ccc(Nc2ncc(C(=O)Nc3c(F)ccc(O)c3Cl)s2)n1 [BAA-480, N-(2-Chloro-6-fluoro-3-hydroxyphenyl)-2-((1-methyl-1H-pyrazol-3-yl)amino)thiazole-5-carboxamide] | – | – | – | 6.00 to 7.30 | < 4.96 | X (100-<1000 fold)
Cc1ccc(O)c(C)c1NC(=O)c1cnc(Nc2ccn(CC(=O)NC[C@@H](C)O)n2)s1 [BAA-170, N-(3-hydroxy-2,6-dimethyl-phenyl)-2-[[1-[2-[[(2R)-2-hydroxypropyl]amino]-2-oxo-ethyl]pyrazol-3-yl]amino]thiazole-5-carboxamide] | > 7.30 | < 4.96 | Y (1000-5000 fold) | – | – | –

Further lines, results first:

pIC50 (Human PKMYT1; [1]) | pIC50 (WEE1; [2]) | PKMYT1 vs. WEE1 selectivity (WEE1; [3]) | pIC50 (Human PKMYT1; [4]) | pIC50 (WEE1; WEE1 15 nM, banded values) | PKMYT1 vs. WEE1 selectivity (WEE1; banded) | SMILES
4.96 to 6.00 | < 4.96 | W (10-<100 fold) | – | – | – | Cc1ccc(O)c(C)c1NC(=O)c1cnc(Nc2cccc(S(=O)(=O)N3CC(F)(F)C(F)(F)C3)c2)s1 [BAA-286, N-(3-hydroxy-2,6-dimethylphenyl)-2-((3-((3,3,4,4-tetrafluoropyrrolidin-1-yl)sulfonyl)phenyl)amino)thiazole-5-carboxamide]
> 7.30 | < 4.96 | Y (1000-5000 fold) | – | – | – | Cc1ccc(O)c(C)c1NC(=O)c1cnc(Nc2ccn(CC(=O)NC3CCC3)n2)s1 [BAA-191]
4.96 to 6.00 | < 4.96 | W (10-<100 fold) | – | – | – | Cc1ccc(O)c(C)c1NC(=O)c1cnc(Nc2cccc(S(=O)(=O)C(F)(F)F)c2)s1 [BAA-284, N-(3-hydroxy-2,6-dimethylphenyl)-2-((3-((trifluoromethyl)sulfonyl)phenyl)amino) thiazole-5-carboxamide]
> 7.30 | < 4.96 | X (100-<1000 fold) | – | – | – | Cc1ccc(O)c(C)c1NC(=O)c1cnc(Nc2cc(C)n(CC(=O)N3CCN(C)CC3)n2)s1 [BAA-201]
6.00 to 7.30 | < 4.96 | >Y (1000-5000 fold) | – | – | – | Cc1ccc(O)c(C)c1NC(=O)c1cnc(Nc2ccn([C@@H]3CCN(C(=O)Cc4ccccc4F)C3)n2)s1 [BAA-095]
– | – | – | > 7.30 | < 4.96 | Y (1000-5000 fold) | CCn1cc(C#N)c(Nc2ncc(C(=O)Nc3c(C)ccc(O)c3C)s2)n1 [BAA-573, 2-((4-cyano-1-ethyl-1H-pyrazol-3-yl)amino)-N-(3-hydroxy-2,6-dimethylphenyl)thiazole-5-carboxamide]
6.00 to 7.30 | < 4.96 | X (100-<1000 fold) | – | – | – | Cc1ccc(O)c(C)c1NC(=O)c1cnc(Nc2nn(C)c3cc(Br)ccc23)s1 [BAA-267, 2-((6-bromo-1-methyl-1H-indazol-3-yl)amino)-N-(3-hydroxy-2,6-dimethylphenyl)thiazole-5-carboxamide]
– | – | – | 6.00 to 7.30 | < 4.96 | X (100-<1000 fold) | Cc1ccc(O)c(C)c1NC(=O)c1cnc(Nc2cnn(C)c2C)s1 [BAA-520, 2-((1,5-dimethyl-1H-pyrazol-4-yl)amino)-N-(3-hydroxy-2,6-dimethylphenyl)thiazole-5-carboxamide]
– | – | – | 6.00 to 7.30 | < 4.96 | X (100-<1000 fold) | Cc1ccc(O)c(C)c1NC(=O)c1cnc(Nc2cccc3c2OCCO3)s1 [BAA-529, 2-((2,3-dihydrobenzo[b][1,4]dioxin-5-yl)amino)-N-(3-hydroxy-2,6-dimethylphenyl)thiazole-5-carboxamide. TFA salt]
– | – | – | 6.00 to 7.30 | < 4.96 | X (100-<1000 fold) | Cc1ccc(O)c(C)c1NC(=O)c1nnc(Nc2ccn(C)n2)s1 [BAA-463, N-(3-Hydroxy-2,6-dimethylphenyl)-5-((1-methyl-1H-pyrazol-3-yl)amino)-1,3,4-thiadiazole-2-carboxamide]
> 7.30 | < 4.96 | Y (1000-5000 fold) | – | – | – | COCCNC(=O)Cn1ccc(Nc2ncc(C(=O)Nc3c(C)ccc(O)c3C)s2)n1 [BAA-166, N-(3-hydroxy-2,6-dimethyl-phenyl)-2-[[1-[2-(2-methoxyethylamino)-2-oxo-ethyl]pyrazol-3-yl]amino]thiazole-5-carboxamide]
4.96 to 6.00 | < 4.96 | >W (10-<100 fold) | – | – | – | Cc1ccc(O)c(C)c1NC(=O)c1cnc(NCC2CCNCC2)s1 [BAA-079, N-(3-hydroxy-2,6-dimethyl-phenyl)-2-(4-piperidylmethylamino)thiazole-5-carboxamide hydrochloride]
> 7.30 | 4.96 to 6.00 | X (100-<1000 fold) | – | – | – | Cc1ccc(O)c(C)c1NC(=O)c1cnc(Nc2ccn(CC(N)=O)n2)s1 [BAA-133, 2-[[1-(2-amino-2-oxo-ethyl)pyrazol-3-yl]amino]-N-(3-hydroxy-2,6-dimethyl-phenyl) thiazole-5-carboxamide]

— patent US20260297042A1, “BIARYLAMIDE DERIVATIVES AND THEIR USE AS PKMYT1 INHIBITORS” (CANCER RESEARCH TECHNOLOGY LIMITED, priority 2023, published 2026)
